Laboratory results taken from ChEMBL document CHEMBL4118195, “Synthesis and profiling of benzylmorpholine 1,2,4,5-tetraoxane analogue N205: Towards tetraoxane scaffolds with potential for single dose cure of malaria” (Bioorg Med Chem, 2018).

What was measured:
[1] = Metabolic stability in rat blood after 2 to 4 hrs by LC-MS method; assay type: ADME, tissue-based
[2] = Tmax in humanized NOD.Cg-Prkdcscid Il2rgtm1Wjl/SzJ mouse infected with Plasmodium falciparum Pf3D70087/N9 at 50 mg/kg, po administered as single dose by LC-MS/MS analysis; assay type: ADME, organism-based; conditions: in vivo
[3] = Cmax in humanized NOD.Cg-Prkdcscid Il2rgtm1Wjl/SzJ mouse infected with Plasmodium falciparum Pf3D70087/N9 at 5 mg/kg, po administered as single dose after 0.25 to 23 hrs by LC-MS/MS analysis; assay type: ADME, organism-based; design: dose 5 mg/kg, route oral; conditions: in vivo
[4] = Intrinsic clearance in rat liver microsomes assessed per mg protein at 5 uM by UPLC-MS analysis; assay type: ADME, microsome; conditions: read-out: CLH
[5] = Drug metabolism in rat liver microsomes assessed as open morpholine ring metabolite formation at 5 uM after 60 mins by UPLC-MS analysis; assay type: ADME, microsome; conditions: 1 h
[6] = test system: Mus musculus; assay: Dose normalized Cmax in humanized NOD.Cg-Prkdcscid Il2rgtm1Wjl/SzJ mouse infected with Plasmodium falciparum Pf3D70087/N9 at 5 mg/kg, po administered as single dose after 0.25 to 23 hrs by LC-MS/MS analysis; assay type: ADME, organism-based; conditions: in vivo
[7] = Drug metabolism in rat liver microsomes assessed as mono-oxygenation and dehydrogenation metabolite formation at 5 uM after 60 mins by UPLC-MS analysis; assay type: ADME, microsome; conditions: 1 h
[8] = Drug metabolism in rat liver microsomes assessed as morpholine dealkylated metabolite formation at 5 uM after 60 mins by UPLC-MS analysis; assay type: ADME, microsome; conditions: 1 h
[9] = Drug metabolism in human liver microsomes assessed as bis-oxygenation and dehydrogenation metabolite formation at 5 uM after 60 mins by UPLC-MS analysis; assay type: ADME, microsome; conditions: 1 h
[10] = Drug metabolism in mouse liver microsomes assessed as morpholine ring opened metabolite formation at 5 uM after 60 mins by UPLC-MS analysis; assay type: ADME, microsome; conditions: 1 h
[11] = Drug metabolism in human liver microsomes assessed as metabolite M+16 (III) formation at 5 uM after 60 mins by UPLC-MS analysis; assay type: ADME, microsome; conditions: 1 h
[12] = Drug metabolism in rat liver microsomes assessed as metabolite M+32 (II) formation at 5 uM after 60 mins by UPLC-MS analysis; assay type: ADME, microsome; conditions: 1 h
[13] = Half life in Sprague-Dawley rat at 10 mg/kg, po; assay type: ADME, organism-based; conditions: in vivo
[14] = Tmax in humanized NOD.Cg-Prkdcscid Il2rgtm1Wjl/SzJ mouse infected with Plasmodium falciparum Pf3D70087/N9 at 30 mg/kg, po administered as single dose by LC-MS/MS analysis; assay type: ADME, organism-based; conditions: in vivo
[15] = Drug metabolism in human liver microsomes assessed as deaminated morpholine acid metabolite formation at 5 uM after 60 mins by UPLC-MS analysis; assay type: ADME, microsome; conditions: 1 h
[16] = test system: Plasmodium falciparum; assay: Antimalarial activity against Plasmodium falciparum 3D7 infected in human erythrocytes after 48 hrs by SYBR Green I dye-based fluorescence assay; assay type: functional, organism-based; conditions: 3D7, 48 h
[17] = Drug degradation in mouse liver microsomes assessed as compound half life at 1 uM by UPLC-MS method; assay type: ADME, microsome
[18] = Drug metabolism in human liver microsomes assessed as metabolite M+16 (IV) formation at 5 uM after 60 mins by UPLC-MS analysis; assay type: ADME, microsome; conditions: 1 h
[19] = Drug metabolism in mouse liver microsomes assessed as metabolite M-10(II) formation at 5 uM after 60 mins by UPLC-MS analysis; assay type: ADME, microsome; conditions: 1 h
[20] = Drug metabolism in mouse liver microsomes assessed as open morpholine ring metabolite formation at 5 uM after 60 mins by UPLC-MS analysis; assay type: ADME, microsome; conditions: 1 h
[21] = Drug metabolism in human liver microsomes assessed as metabolite M+16 (V) formation at 5 uM after 60 mins by UPLC-MS analysis; assay type: ADME, microsome; conditions: 1 h
[22] = Drug metabolism in human liver microsomes assessed as open morpholine ring metabolite formation at 5 uM after 60 mins by UPLC-MS analysis; assay type: ADME, microsome; conditions: 1 h
[23] = test system: Plasmodium falciparum; assay: Antimalarial activity against Plasmodium falciparum Pf3D70087/N9 infected in po dosed humanized NOD.Cg-Prkdcscid Il2rgtm1Wjl/SzJ mouse assessed as reduction in parasitemia administered as single dose measured on day 7 post infection by SYTO-16 dye-based flow cytometric analysis; assay type: functional; conditions: 168 h
[24] = Drug metabolism in rat liver microsomes assessed as metabolite M+16 (III) formation at 5 uM after 60 mins by UPLC-MS analysis; assay type: ADME, microsome; conditions: 1 h
[25] = test system: Mus musculus; assay: Dose normalized Cmax in humanized NOD.Cg-Prkdcscid Il2rgtm1Wjl/SzJ mouse infected with Plasmodium falciparum Pf3D70087/N9 at 100 mg/kg, po administered as single dose after 0.25 to 23 hrs by LC-MS/MS analysis; assay type: ADME, organism-based; conditions: in vivo
[26] = Drug metabolism in mouse liver microsomes assessed as cleaved morpholine ring metabolite formation at 5 uM after 60 mins by UPLC-MS analysis; assay type: ADME, microsome; conditions: 1 h
[27] = Drug metabolism in rat liver microsomes assessed as ring dehydrogenated metabolite formation at 5 uM after 60 mins by UPLC-MS analysis; assay type: ADME, microsome; conditions: 1 h
[28] = Drug metabolism in rat liver microsomes assessed as morpholine ring opened metabolite formation at 5 uM after 60 mins by UPLC-MS analysis; assay type: ADME, microsome; conditions: 1 h
[29] = Drug metabolism in mouse liver microsomes assessed as morpholine dealkylated metabolite formation at 5 uM after 60 mins by UPLC-MS analysis; assay type: ADME, microsome; conditions: 1 h
[30] = Intrinsic clearance in human liver microsomes assessed per mg protein at 1 uM by UPLC-MS analysis; assay type: ADME, microsome; conditions: read-out: CLH
[31] = Drug metabolism in mouse liver microsomes assessed as metabolite M+32 (III) formation at 5 uM after 60 mins by UPLC-MS analysis; assay type: ADME, microsome; conditions: 1 h
[32] = Drug degradation in human liver microsomes assessed as compound half life at 1 uM by UPLC-MS method; assay type: ADME, microsome
[33] = Cmax in humanized NOD.Cg-Prkdcscid Il2rgtm1Wjl/SzJ mouse infected with Plasmodium falciparum Pf3D70087/N9 at 50 mg/kg, po administered as single dose after 0.25 to 23 hrs by LC-MS/MS analysis; assay type: ADME, organism-based; design: dose 50 mg/kg, route oral; conditions: in vivo
[34] = Drug metabolism in human liver microsomes assessed as metabolite M+32 (III) formation at 5 uM after 60 mins by UPLC-MS analysis; assay type: ADME, microsome; conditions: 1 h
[35] = Metabolic stability in human blood after 2 to 4 hrs by LC-MS method; assay type: ADME, tissue-based
[36] = Drug metabolism in mouse liver microsomes assessed as mono-oxygenation and dehydrogenation metabolite formation at 5 uM after 60 mins by UPLC-MS analysis; assay type: ADME, microsome; conditions: 1 h
[37] = test system: Plasmodium berghei; assay: Antimalarial activity against Plasmodium berghei infected in mouse assessed as reduction in parasitemia at 30 mg/kg, po administered as single dose measured on day 3 relative to control; assay type: functional; design: scale not given: the % may be the effect or the level left
[38] = Drug metabolism in rat liver microsomes assessed as deaminated morpholine metabolite formation at 5 uM after 60 mins by UPLC-MS analysis; assay type: ADME, microsome; conditions: 1 h
[39] = Cmax in humanized NOD.Cg-Prkdcscid Il2rgtm1Wjl/SzJ mouse infected with Plasmodium falciparum Pf3D70087/N9 at 15 mg/kg, po administered as single dose after 0.25 to 23 hrs by LC-MS/MS analysis; assay type: ADME, organism-based; design: dose 15 mg/kg, route oral; conditions: in vivo
[40] = Drug metabolism in mouse liver microsomes assessed as deaminated morpholine acid metabolite formation at 5 uM after 60 mins by UPLC-MS analysis; assay type: ADME, microsome; conditions: 1 h

c1cc(C2CCC3(CC2)OOC2(OO3)C3CC4CC(C3)CC2C4)ccc1CN1CCOCC1 (stereo not given)
Stability [1]: Stable
Tmax [2]: 2 h
Cmax [3]: 109 ng/mL
microsomal CLint at 5 µM [4]: 89 µL/min/mg
Drug metabolism [5]: Metabolite_Notdetected
Cmax/dose [6]: 0.0218 µg/mL/mg/kg
Drug metabolism [7]: Metabolite_Notdetected
Drug metabolism [8]: Metabolite_Notdetected
Drug metabolism [9]: Metabolite_Notdetected
Drug metabolism [10]: Metabolite_Notdetected
Drug metabolism [11]: Metabolite_Notdetected
Drug metabolism [12]: Metabolite_Notdetected
half-life [13]: 1020 min
Tmax [14]: 1 h
Drug metabolism [15]: Metabolite_Notdetected
IC50 [16]: 1.3 nM
half-life at 1 µM [17]: 48 min
Drug metabolism [18]: Metabolite_Notdetected
Drug metabolism [19]: Metabolite_Detected
Drug metabolism [20]: Metabolite_Notdetected
Drug metabolism [21]: Metabolite_Detected
Drug metabolism [22]: Metabolite_Notdetected
ED90 [23]: 8.6 mg/kg
Drug metabolism [24]: Metabolite_Notdetected
Cmax/dose [25]: 0.0025 µg/mL/mg/kg
Drug metabolism [26]: Metabolite_Notdetected
Drug metabolism [27]: Metabolite_Notdetected
Drug metabolism [28]: Metabolite_Notdetected
Drug metabolism [29]: Metabolite_Notdetected
microsomal CLint at 1 µM [30]: 51 µL/min/mg
Drug metabolism [31]: Metabolite_Notdetected
half-life at 1 µM [32]: 34 min
Cmax [33]: 607 ng/mL
Drug metabolism [34]: Metabolite_Notdetected
Stability [35]: Stable
Drug metabolism [36]: Metabolite_Notdetected
Activity [37]: 99.42%
Drug metabolism [38]: Metabolite_Notdetected
Cmax [39]: 148 ng/mL
Drug metabolism [40]: Metabolite_Notdetected
